# Experimental data taken from ChEMBL document CHEMBL5625239, “Synthesis of 1,3,5-triphenyl-1,2,4-triazole derivatives and their neuroprotection by anti-oxidative stress and anti-inflammation and protecting BBB” (Eur J Med Chem, 2023).
# Activity calls are given as the source filed them. No cut-off for these calls is given here.
# How the values were obtained:
# [1] = tested on: Rattus norvegicus; assay: Neuroprotective activity against middle cerebral artery occlusion induced ischemia stroke Sprague-Dawley rat model assessed as cerebral infarction area at 5 mg/kg, ip measured after 24 hrs by TTC staining based imaging analysis (reference value: 20.08 +/- 5.70); format: functional
# [2] = Acute toxicity in mouse assessed as effect on behavior at 1000 mg/kg, ip; format: organism-based; conditions: in vivo
# [3] = tested on: Rattus norvegicus; assay: Neuroprotective activity against middle cerebral artery occlusion induced ischemia stroke Sprague-Dawley rat model assessed as reduction in glycocalyx degradation by measuring decrease in serum heparan sulfate level at 5 to 20 mg/kg, ip measured after 24 hrs by ELISA; format: functional, organism-based; conditions: dose 5-20 mg/kg
# [4] = tested on: Rattus norvegicus; assay: Neuroprotective activity against middle cerebral artery occlusion induced ischemia stroke Sprague-Dawley rat model assessed as neurological severity score at 20 mg/kg, ip measured after 24 hrs by behavioral test (reference value: 10.50 +/- 2.72); format: functional
# [5] = tested on: Rattus norvegicus; assay: Neuroprotective activity against middle cerebral artery occlusion induced ischemia stroke Sprague-Dawley rat model assessed as reduction in serum MMP-9 level administered intraperitoneally and measured after 24 hrs by ELISA; format: functional, organism-based; conditions: dose 5-20 mg/kg, route ip
# [6] = tested on: RAW264.7; assay: Anti-inflammatory activity in LPS-induced mouse RAW264.7 cells assessed as decrease in COX-2 expression preincubated with compound for 1 hrs followed by LPS stimulation and measured after 24 hrs by Western blot analysis; format: functional, cell-based; conditions: dose 1.25-5 µM, time 25.0 hrs
# [7] = tested on: Rattus norvegicus; assay: Neuroprotective activity against middle cerebral artery occlusion induced ischemia stroke Sprague-Dawley rat model assessed as reduction in glycocalyx degradation by measuring decrease in serum hyaluronic acid level administered intraperitoneally and measured after 24 hrs by ELISA; format: functional, organism-based; conditions: dose 5-20 mg/kg, route ip
# [8] = tested on: PC-12; assay: Protection against SNP-induced cell damage in rat PC-12 cells assessed as reduction in apoptosis by measuring normal nuclear staining at 10 uM preincubated with compound for 2 hrs followed by SNP addition and measured after 24 hrs by confocal laser microscopic analysis; format: functional, cell-based; conditions: time 26.0 hrs
# [9] = tested on: Rattus norvegicus; assay: Neuroprotective activity against middle cerebral artery occlusion induced ischemia stroke Sprague-Dawley rat model assessed as cerebral infarction area at 10 mg/kg, ip measured after 24 hrs by TTC staining based imaging analysis (reference value: 20.08 +/- 5.70); format: functional
# [10] = tested on: Rattus norvegicus; assay: Neuroprotective activity against middle cerebral artery occlusion induced ischemia stroke Sprague-Dawley rat model assessed as cerebral infarction area at 20 mg/kg, ip measured after 24 hrs by TTC staining based imaging analysis (reference value: 20.08 +/- 5.70); format: functional
# [11] = Acute toxicity in ip dosed mouse assessed as lethal dose; format: organism-based; conditions: in vivo
# [12] = tested on: PC-12; assay: Protection against SNP-induced cell damage in rat PC-12 cells assessed as reduction in apoptosis by measuring decrease in bright-blue nuclei at 10 uM preincubated with compound for 2 hrs followed by SNP addition and measured after 24 hrs by confocal laser microscopic analysis; format: functional, cell-based; conditions: time 26.0 hrs
# [13] = target: Kelch-like ECH-associated protein 1 (Homo sapiens, UniProt Q14145); assay: Binding affinity to CM5 chip immobilized KEAP1 Kelch domain (unknown origin) assessed as dissociation equilibrium constant by SPR analysis
# [14] = Acute toxicity in mouse assessed as mortality at 1000 mg/kg, ip; format: organism-based; conditions: in vivo
# [15] = tested on: Rattus norvegicus; assay: Neuroprotective activity against middle cerebral artery occlusion induced ischemia stroke Sprague-Dawley rat model assessed as neurological severity score at 10 mg/kg, ip measured after 24 hrs by behavioral test (reference value: 10.50 +/- 2.72); format: functional
# [16] = tested on: Rattus norvegicus; assay: Neuroprotective activity against middle cerebral artery occlusion induced ischemia stroke Sprague-Dawley rat model assessed as reduction in TNF-alpha level in serum at 20 mg/kg, ip measured after 24 hrs by ELISA; format: functional, organism-based
# [17] = tested on: RAW264.7; assay: Anti-inflammatory activity in LPS-induced mouse RAW264.7 cells assessed as decrease in iNOS expression preincubated with compound for 1 hrs followed by LPS stimulation and measured after 24 hrs by Western blot analysis; format: functional, cell-based; conditions: dose 1.25-5 µM, time 25.0 hrs
# [18] = tested on: PC-12; assay: Neuroprotective activity against SNP-induced cell damage in rat PC-12 cells pretreated with compound for 2 hrs followed by SNP addition and measured after 24 hrs by MTT assay; format: functional, cell-based; conditions: dose 2.5-100 µM, time 26.0 hrs
# [19] = target: T1, Prostaglandin G/H synthase 1 (Ovis aries, UniProt P05979); assay: Inhibition of ovine COX-1 using arachidonic acid as substrate preincubated with compound for 5 mins followed by substrate addition and measured after 2 mins by enzyme immunoassay
# T1 sequence (P05979 whole entry): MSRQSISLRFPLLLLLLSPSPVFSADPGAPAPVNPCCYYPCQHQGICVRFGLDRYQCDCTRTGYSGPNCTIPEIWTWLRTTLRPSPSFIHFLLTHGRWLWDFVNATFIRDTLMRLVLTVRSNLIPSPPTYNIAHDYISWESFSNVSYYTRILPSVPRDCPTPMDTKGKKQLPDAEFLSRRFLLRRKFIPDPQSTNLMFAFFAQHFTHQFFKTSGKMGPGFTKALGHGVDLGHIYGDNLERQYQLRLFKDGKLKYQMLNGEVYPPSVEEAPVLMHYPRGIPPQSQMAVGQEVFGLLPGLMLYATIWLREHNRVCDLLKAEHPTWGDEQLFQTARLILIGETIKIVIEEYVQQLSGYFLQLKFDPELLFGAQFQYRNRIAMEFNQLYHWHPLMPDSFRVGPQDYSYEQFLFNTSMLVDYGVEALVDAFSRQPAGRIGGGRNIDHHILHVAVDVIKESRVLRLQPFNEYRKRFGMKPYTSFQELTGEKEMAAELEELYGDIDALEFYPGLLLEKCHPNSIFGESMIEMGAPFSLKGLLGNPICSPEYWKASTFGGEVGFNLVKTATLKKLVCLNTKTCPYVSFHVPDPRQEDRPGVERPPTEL
# [20] = target: Voltage-gated inwardly rectifying potassium channel KCNH2 (Homo sapiens, UniProt Q12809); assay: Inhibition of hERG in HEK293 cells by whole-cell patch clamp electrophysiological recording; format: toxicity, cell-based
# [21] = tested on: Rattus norvegicus; assay: Neuroprotective activity against middle cerebral artery occlusion induced ischemia stroke Sprague-Dawley rat model assessed as neurological severity score at 5 mg/kg, ip measured after 24 hrs by behavioral test (reference value: 10.50 +/- 2.72); format: functional
# [22] = tested on: RAW264.7; assay: Anti-inflammatory activity in LPS-induced mouse RAW264.7 cells assessed as reduction in PGE2 level preincubated with compound for 1 hrs followed by LPS stimulation and measured after 24 hrs by ELISA; format: functional, cell-based; conditions: time 25.0 hrs
# [23] = tested on: RAW264.7; assay: Cytotoxicity against mouse RAW264.7 cells assessed as reduction in cell viability at 5 uM incubated for 24 hrs by MTT assay; format: toxicity, cell-based; conditions: raw264.7, 24 h
# [24] = tested on: PC-12; assay: Protection against SNP-induced cell damage in rat PC-12 cells assessed as reduction in apoptosis by measuring decrease in cell count at 10 uM preincubated with compound for 2 hrs followed by SNP addition and measured after 24 hrs by confocal laser microscopic analysis; format: functional, cell-based; conditions: time 26.0 hrs
# [25] = tested on: RAW264.7; assay: Anti-inflammatory activity in mouse RAW264.7 cells assessed as inhibition of LPS-induced NO production preincubated with compound for 1 hrs followed by LPS stimulation and measured after 24 hrs; format: functional, cell-based; conditions: time 25.0 hrs
# [26] = tested on: PC-12; assay: Protection against SNP-induced cell damage in rat PC-12 cells assessed as inhibition of ROS accumulation by measuring reduction in green fluorescence intensity at 10 uM preincubated with compound for 2 hrs followed by SNP addition and measured after 24 hrs by laser confocal microscopic analysis; format: functional, cell-based; conditions: time 26.0 hrs
# [27] = tested on: Rattus norvegicus; assay: Neuroprotective activity against middle cerebral artery occlusion induced ischemia stroke Sprague-Dawley rat model assessed as increase in SOD level in serum at 20 mg/kg, ip measured after 24 hrs by ELISA; format: functional, organism-based
# [28] = tested on: Rattus norvegicus; assay: Neuroprotective activity against middle cerebral artery occlusion induced ischemia stroke Sprague-Dawley rat model assessed as reduction in MDA level in serum at 20 mg/kg, ip measured after 24 hrs by ELISA; format: functional, organism-based
# [29] = tested on: Rattus norvegicus; assay: Neuroprotective activity against middle cerebral artery occlusion induced ischemia stroke Sprague-Dawley rat model assessed as reduction in glycocalyx degradation by measuring decrease in serum syndecan-1 level at 5 to 20 mg/kg, ip measured after 24 hrs by ELISA; format: functional, organism-based; conditions: dose 5-20 mg/kg
# [30] = tested on: PC-12; assay: Protection against SNP-induced cell damage in rat PC-12 cells at 10 uM pretreated with compound for 2 hrs followed by SNP addition and measured after 24 hrs by MTT assay; format: functional, cell-based; conditions: time 26.0 hrs
# [31] = tested on: Rattus norvegicus; assay: Neuroprotective activity against middle cerebral artery occlusion induced ischemia stroke Sprague-Dawley rat model assessed as reduction in IL-1beta level in serum at 20 mg/kg, ip measured after 24 hrs by ELISA; format: functional, organism-based
# Chain of Voltage-gated inwardly rectifying potassium channel KCNH2 (Q12809 whole entry): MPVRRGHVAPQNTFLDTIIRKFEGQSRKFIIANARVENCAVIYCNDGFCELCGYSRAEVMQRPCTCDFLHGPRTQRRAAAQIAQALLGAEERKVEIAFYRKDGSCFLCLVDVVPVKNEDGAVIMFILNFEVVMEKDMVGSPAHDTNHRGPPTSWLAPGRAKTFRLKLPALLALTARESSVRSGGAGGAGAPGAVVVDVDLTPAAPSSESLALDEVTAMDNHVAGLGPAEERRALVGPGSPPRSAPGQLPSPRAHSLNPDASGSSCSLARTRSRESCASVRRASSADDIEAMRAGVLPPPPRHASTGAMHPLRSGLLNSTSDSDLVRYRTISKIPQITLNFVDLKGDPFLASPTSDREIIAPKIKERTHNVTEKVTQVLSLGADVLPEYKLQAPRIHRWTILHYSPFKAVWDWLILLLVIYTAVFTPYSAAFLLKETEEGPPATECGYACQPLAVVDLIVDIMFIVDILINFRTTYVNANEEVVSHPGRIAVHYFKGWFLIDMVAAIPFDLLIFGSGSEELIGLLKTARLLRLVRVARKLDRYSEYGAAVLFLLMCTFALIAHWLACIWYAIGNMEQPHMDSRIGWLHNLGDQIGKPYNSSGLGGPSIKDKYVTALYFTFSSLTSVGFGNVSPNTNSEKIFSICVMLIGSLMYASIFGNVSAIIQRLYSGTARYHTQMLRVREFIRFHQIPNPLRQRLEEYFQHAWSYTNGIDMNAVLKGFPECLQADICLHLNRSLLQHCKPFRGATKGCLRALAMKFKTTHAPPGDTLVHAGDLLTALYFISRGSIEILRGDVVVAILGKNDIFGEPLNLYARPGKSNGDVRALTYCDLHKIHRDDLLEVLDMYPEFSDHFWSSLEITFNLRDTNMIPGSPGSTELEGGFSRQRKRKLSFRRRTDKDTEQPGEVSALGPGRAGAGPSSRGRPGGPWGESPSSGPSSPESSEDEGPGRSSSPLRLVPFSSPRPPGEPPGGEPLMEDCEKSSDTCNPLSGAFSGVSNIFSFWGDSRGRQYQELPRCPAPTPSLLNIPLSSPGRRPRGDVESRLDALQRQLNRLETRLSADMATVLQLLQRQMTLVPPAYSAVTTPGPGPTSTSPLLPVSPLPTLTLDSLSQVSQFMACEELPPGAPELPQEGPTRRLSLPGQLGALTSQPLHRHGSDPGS
# Chain of Kelch-like ECH-associated protein 1 (Q14145 whole entry, the tested form may be a part): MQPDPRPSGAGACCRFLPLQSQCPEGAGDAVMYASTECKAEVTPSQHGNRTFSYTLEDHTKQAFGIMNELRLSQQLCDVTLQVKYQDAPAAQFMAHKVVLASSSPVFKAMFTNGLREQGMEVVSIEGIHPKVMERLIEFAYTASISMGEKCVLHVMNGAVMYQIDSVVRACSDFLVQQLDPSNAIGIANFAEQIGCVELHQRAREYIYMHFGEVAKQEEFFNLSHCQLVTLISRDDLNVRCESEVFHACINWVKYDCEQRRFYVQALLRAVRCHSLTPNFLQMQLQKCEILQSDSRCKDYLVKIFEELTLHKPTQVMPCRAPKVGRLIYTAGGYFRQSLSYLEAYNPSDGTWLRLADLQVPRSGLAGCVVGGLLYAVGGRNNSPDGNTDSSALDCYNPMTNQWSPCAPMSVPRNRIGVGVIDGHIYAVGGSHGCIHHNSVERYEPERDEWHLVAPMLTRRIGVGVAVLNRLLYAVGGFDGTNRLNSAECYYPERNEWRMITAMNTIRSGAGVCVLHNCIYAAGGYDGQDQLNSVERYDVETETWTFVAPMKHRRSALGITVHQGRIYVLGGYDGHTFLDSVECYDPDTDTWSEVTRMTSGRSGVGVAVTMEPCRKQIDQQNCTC
compound,measurement,setting,value
NS(=O)(=O)c1ccc(-n2nc(-c3ccc(C(F)(F)F)cc3O)nc2-c2ccccc2O)cc1,Activity,[1],18.52
same,Activity,[2],Non-Toxic
same,Activity,[3],Active
same,Activity,[4],7.4
same,Activity,[5],Dose-Dependent Effect
same,Activity,[6],Dose-Dependent Effect
same,Activity,[7],Dose-Dependent Effect
same,Activity,[8],Active
same,Activity,[9],17.43
same,Activity,[10],15.61
same,LD50,[11],> 1000 mg/kg
same,Activity,[12],Active
same,Kd,[13],16.5 µM
same,Activity,[14],Non-Toxic
same,Activity,[15],9.25
same,Activity,[16],Active
same,Activity,[17],Dose-Dependent Effect
same,Activity,[18],Dose-Dependent Effect
same,IC50,[19],86.5 µM
same,IC50,[20],> 30 µM
same,Activity,[21],9.2
same,Activity,[22],Active
same,Activity,[23],Non-Toxic
same,Activity,[24],Active
same,Activity,[25],Active
same,Activity,[26],Active
same,Activity,[27],Active
same,Activity,[28],Active
same,Activity,[29],Active
same,Activity,[30],Active
same,Activity,[31],Active
